49 compounds from patent US10294259B2, “Phenyl c-glucoside derivative containing deoxyglucose structure, preparation method and use thereof” (Tianjin Institute of Pharmaceutical Research, priority 2012, dated 2019) can be followed below.

One series relates to SD rats (type 2 diabetes model). As to the kind of experiment: Urine glucose excretion in streptozotocin/high-fat high-sucrose diet type 2 diabetes model rats, glucose-oxidase method. In kind it is in vivo, rat. The settings on record: 6 mg/kg intragastric, glucose 2 g/kg at 0.5 h, urine collected 0-12 h. As for the experimental part:
The health SD rats are injected intraperitoneally with multiple low doses of streptozotocin for modeling (type 2 diabetes model) after feeding with high-fat and high-sucrose diet, and the content of blood glucose is measured before and after modeling. After the modeling successful, the rats for modeling are randomly divided (8 rats/group) into one blank group (administering the same volume of 0.5% CMC sodium solution) and several groups for compounds to be tested (6 mg/kg) according to the content of 24-hour urine glucose and the body weight. Rats in each group are fasted for 16 hours before experiment. The experimental rats are administered intragastrically with glucose (2 g/kg) at 0.5 h after intragastrical administration with compounds to be tested. The urine is collected at the time-period of 0-12 h after administration, and the urine glucose values are measured at each time-period by glucose-oxidase method. […]
On to `COc1ccc(Cc2cc(C3OC(CO)CC(O)C3O)ccc2Cl)cc1` (stereo not shown), for which the Urine glucose excretion is given as 310 mg/200 g body weight of the rat.

Regarding `CCOc1ccc(Cc2cc(C3OC(C)(C)C(O)C(O)C3O)ccc2Cl)cc1` (stereo not shown), the Urine glucose excretion is reported as 470 mg/200 g body weight of the rat.

On to `CCOc1ccc(Cc2cc(C3OC(C)C(O)C(O)C3O)ccc2C)cc1` (stereo not shown) [drawing 219], for which the Urine glucose excretion is listed as 700 mg/200 g body weight of the rat.

Staying with this series, now noted: compared with analogues or non-deoxy compounds.
Turning to `CCOc1ccc(Cc2cc([C@@H]3O[C@H](CO)[C@@H](O)C[C@H]3O)ccc2Cl)cc1` [I-D1-3, (1S)-1-[4-chloro-3-(4-ethoxybenzyl)phenyl]-1,3-dideoxy-D-glucose], the “urine glucose excretion effect (comparison in words)” value was “stronger urine glucose excretion effect”.

Take `CCOc1ccc(Cc2cc([C@@H]3C[C@@H](O)[C@H](O)[C@@H](CO)O3)ccc2Cl)cc1` [I-D1-2, (1S)-1-[4-chloro-3-(4-ethoxybenzyl)phenyl]-1,2-dideoxy-D-glucose]: the “urine glucose excretion effect (comparison in words)” value is “stronger urine glucose excretion effect”.

In another series the test system is Mice.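 Further: test animals were mice weighing 18-20 g, with both sexes in equal numbers in each group.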
Test: not given
As to conditions: both, mouse, in vivo, 750 mg/kg, 1 week.
Regarding `CCOc1ccc(Cc2cc(C3SC(CO)C(O)C(O)C3O)c(OC)cc2C)cc1` (stereo not shown), the “Behaviors after administration with the compound to be tested” value (from here on “Behaviors after administration”) is on record as 10 dead.

With `OCC1OC(c2ccc(F)c(Cc3cc4ccccc4s3)c2)C(O)C(O)C1O` (stereo not shown), the “Behaviors after administration” value came to 7 dead.

Staying with this series, now noted: single dose 750 mg/kg intragastric, 10 mice/group, observed one week.
Consider `Cc1ccc(C2OC(C)C(O)C(O)C2O)cc1Cc1ccc(-c2ccc(F)cc2)s1` (stereo not shown), for which the “Behaviors after administration” value stood at 4 dead.

As to `CC1OC(c2ccc(Cl)c(Cc3ccc(O[C@H]4CCOC4)cc3)c2)C(O)C(O)C1O` (stereo partly shown), the “Behaviors after administration” value was determined as 1 dead.

In the case of `CCOc1ccc(Cc2cc(C3SC(CO)CC(O)C3O)c(OC)cc2C)cc1` (stereo not shown), the “Behaviors after administration” value came to 1 dead.

For `OCC1CCC(O)C(c2ccc(Cl)c(Cc3ccc(O[C@H]4CCOC4)cc3)c2)O1` (stereo partly shown), the “Behaviors after administration” value was 2 dead.

Regarding `OCC1OC(c2ccc(Cl)c(Cc3ccc(O[C@H]4CCOC4)cc3)c2)CC(O)C1O` (stereo partly shown), the “Behaviors after administration” value came to 2 dead.

`CCOc1ccc(Cc2cc([C@]34OC[C@](CO)(O3)[C@@H](O)[C@H](O)[C@H]4O)ccc2Cl)cc1`: the “Behaviors after administration” value is reported as 9 dead.

Take `Cc1ccc(C2OC(CO)C(O)CC2O)cc1Cc1ccc(-c2ccc(F)cc2)s1` (stereo not shown): the “Behaviors after administration” value came to 3 dead.

`CCOc1ccc(Cc2cc([C@]34C[C@@H](O)[C@H](O)[C@](CO)(CO3)O4)ccc2Cl)cc1`: the “Behaviors after administration” value is listed as 2 dead.

As to `CCOc1ccc(Cc2cc(C3SC(CO)C(O)CC3O)c(OC)cc2C)cc1` (stereo not shown) [drawing 304], the “Behaviors after administration” value is 3 dead.

In the case of `CCc1ccc(Cc2c(Cl)ccc3c2COC32OC(CO)C(O)C(O)C2O)cc1` (stereo not shown) [drawing 269], the “Behaviors after administration” value came to 7 dead.

Turning to `OCC1CC(O)C(O)C(c2ccc(F)c(Cc3cc4ccccc4s3)c2)O1` (stereo not shown), the “Behaviors after administration” value amounted to 1 dead.

For `CCc1ccc(Cc2c(Cl)ccc3c2COC32OC(C)C(O)C(O)C2O)cc1` (stereo not shown), the “Behaviors after administration” value is 3 dead.

For `OCC1OC(c2ccc(Cl)c(Cc3ccc(O[C@H]4CCOC4)cc3)c2)C(O)C(O)C1O` (stereo partly shown), the “Behaviors after administration” value was determined as 7 dead.

On to `CCOc1ccc(Cc2cc(C3CCC(O)C(CO)S3)c(OC)cc2C)cc1` (stereo not shown) [drawing 310], for which the “Behaviors after administration” value came to 0 dead.

Turning to `CCOc1ccc(Cc2cc(C3OC(CO)CC(O)C3O)ccc2Cl)cc1` (stereo not shown) [drawing 272], the “Behaviors after administration” value was 2 dead.

In the case of `CCOc1ccc(Cc2cc(C3SC(C)C(O)C(O)C3O)c(OC)cc2C)cc1` (stereo not shown), the “Behaviors after administration” value amounted to 4 dead.

`CCCOc1ccc(Cc2cc(C3OC(C)C(O)C(O)C3O)ccc2Cl)cc1` (stereo not shown): the “Behaviors after administration” value amounted to 6 dead.

As to `CC1OC(c2ccc(F)c(Cc3cc4ccccc4s3)c2)CC(O)C1O` (stereo not shown), the “Behaviors after administration” value worked out at 1 dead.

`CCOc1ccc(Cc2cc(C3OC(CO)C(O)C(O)C3O)ccc2Cl)cc1` (stereo not shown): the “Behaviors after administration” value is recorded as 8 dead.

In the case of `OCC1OC(c2ccc(F)c(Cc3cc4ccccc4s3)c2)CC(O)C1O` (stereo not shown), the “Behaviors after administration” value was 3 dead.

Turning to `OCC1OC(c2ccc(Cl)c(Cc3ccc(O[C@H]4CCOC4)cc3)c2)C(O)CC1O` (stereo partly shown), the “Behaviors after administration” value amounted to 0 dead.

For `CCOc1ccc(Cc2cc(C3SC(CO)C(O)CC3O)c(OC)cc2C)cc1` (stereo not shown) [drawing 303], the “Behaviors after administration” value was determined as 0 dead.

Regarding `Cc1ccc(C2CC(O)C(O)C(CO)O2)cc1Cc1ccc(-c2ccc(F)cc2)s1` (stereo not shown), the “Behaviors after administration” value worked out at 5 dead.

In the case of `CCc1ccc(Cc2c(Cl)ccc3c2COC32OC(CO)C(O)CC2O)cc1` (stereo not shown), the “Behaviors after administration” value was determined as 5 dead.

`CCc1ccc(Cc2c(Cl)ccc3c2COC32OC(CO)CC(O)C2O)cc1` (stereo not shown): the “Behaviors after administration” value was determined as 5 dead.

With `CCOc1ccc(Cc2cc(C3OC(C)C(O)C(O)C3O)ccc2Cl)cc1` (stereo not shown) [drawing 282], the “Behaviors after administration” value turned out to be 1 dead.

For the compound `Cc1ccc(C2OC(C)C(O)CC2O)cc1Cc1ccc(-c2ccc(F)cc2)s1` (stereo not shown), the “Behaviors after administration” value was 0 dead.

In the case of `CCOc1ccc(Cc2cc([C@]34OC[C@](C)(O3)[C@@H](O)[C@H](O)[C@H]4O)ccc2Cl)cc1`, the “Behaviors after administration” value was 3 dead.

`CCOc1ccc(Cc2cc(C3OC(C)CC(O)C3O)ccc2Cl)cc1` (stereo not shown): the “Behaviors after administration” value stood at 1 dead.

On to `Cc1ccc(C2OC(CO)CC(O)C2O)cc1Cc1ccc(-c2ccc(F)cc2)s1` (stereo not shown), for which the “Behaviors after administration” value was determined as 3 dead.

Consider `CCc1ccc(Cc2c(Cl)ccc3c2COC32CC(O)C(O)C(CO)O2)cc1` (stereo not shown), for which the “Behaviors after administration” value is given as 2 dead.

Take `OCC1OC(c2ccc(F)c(Cc3cc4ccccc4s3)c2)C(O)CC1O` (stereo not shown): the “Behaviors after administration” value is given as 0 dead.

On to `OCC1CC(O)C(O)C(c2ccc(Cl)c(Cc3ccc(O[C@H]4CCOC4)cc3)c2)O1` (stereo partly shown), for which the “Behaviors after administration” value is given as 2 dead.

For `CCc1ccc(Cc2c(Cl)ccc3c2COC32CC(O)CC(CO)O2)cc1` (stereo not shown), the “Behaviors after administration” value was 1 dead.

Regarding `CCOc1ccc(Cc2cc([C@]34OC[C@](CO)(O3)[C@@H](O)C[C@H]4O)ccc2Cl)cc1`, the “Behaviors after administration” value amounted to 3 dead.

Turning to `CCOc1ccc(Cc2cc(C3OC(CO)C(O)CC3O)ccc2Cl)cc1` (stereo not shown), the “Behaviors after administration” value is recorded as 3 dead.

Consider `CCOc1ccc(Cc2cc([C@@]34OC[C@@](CO)(C[C@H](O)[C@H]3O)O4)ccc2Cl)cc1`, for which the “Behaviors after administration” value came out at 4 dead.

On to `CCOc1ccc(Cc2cc(C3CC(O)C(O)C(CO)S3)c(OC)cc2C)cc1` (stereo not shown), for which the “Behaviors after administration” value was 3 dead.

Consider `COc1ccc(Cc2cc(C3OC(C)C(O)C(O)C3O)ccc2Cl)cc1` (stereo not shown) [drawing 281], for which the “Behaviors after administration” value is 7 dead.

In the case of `Cc1ccc(C2OC(CO)C(O)C(O)C2O)cc1Cc1ccc(-c2ccc(F)cc2)s1` (stereo not shown), the “Behaviors after administration” value came out at 9 dead.

For the compound `CCOc1ccc(Cc2cc(C3CC(O)C(O)C(CO)O3)ccc2Cl)cc1` (stereo not shown), the “Behaviors after administration” value is listed as 2 dead.

With `CC1OC(c2ccc(F)c(Cc3cc4ccccc4s3)c2)C(O)C(O)C1O` (stereo not shown), the “Behaviors after administration” value is reported as 2 dead.
